System: 227483-062-R1-J1-PDC complex spheroids with HUVEC/MSC, viability
Test: Anticancer human tumor 227483-062-R1-J1-PDC patient-derived pancreatic carcinoma cell line growth inhibition [CLK]
Settings: for IC50: curve of first compound; for viability, T/C: stronger effect = lower value
In short: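 Multi-cell-type spheroids combined patient-derived tumor cells with HUVEC endothelial cells and human mesenchymal stem cells. Paired agents were dosed in half-log steps down from about clinical Cmax, or from 10 microM where Cmax was unknown.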

[1] = second compound 0.0316 µM, first compound 0.0316 µM
[2] = second compound 0.0316 µM, first compound 0.1 µM
[3] = second compound 0.0316 µM, first compound 0.316 µM
[4] = second compound 0.0316 µM, first compound 1 µM
[5] = second compound 0.0316 µM, first compound 3.16 µM
[6] = second compound 0.0316 µM, first compound 10 µM
[7] = second compound 0.1 µM, first compound 0.0316 µM
[8] = second compound 0.1 µM, first compound 0.1 µM
[9] = second compound 0.1 µM, first compound 0.316 µM
[10] = second compound 0.1 µM, first compound 1 µM
[11] = second compound 0.1 µM, first compound 3.16 µM
[12] = second compound 0.1 µM, first compound 10 µM
[13] = second compound 0.316 µM, first compound 0.0316 µM
[14] = second compound 0.316 µM, first compound 0.1 µM
[15] = second compound 0.316 µM, first compound 0.316 µM
[16] = second compound 0.316 µM, first compound 1 µM
[17] = second compound 0.316 µM, first compound 3.16 µM
[18] = second compound 0.316 µM, first compound 10 µM
[19] = second compound 1 µM, first compound 0.0316 µM
[20] = second compound 1 µM, first compound 0.1 µM
[21] = second compound 1 µM, first compound 0.316 µM
[22] = second compound 1 µM, first compound 1 µM
[23] = second compound 1 µM, first compound 3.16 µM
[24] = second compound 1 µM, first compound 10 µM
[25] = second compound 3.16 µM, first compound 0.0316 µM
[26] = second compound 3.16 µM, first compound 0.1 µM
[27] = second compound 3.16 µM, first compound 0.316 µM
[28] = second compound 3.16 µM, first compound 1 µM
[29] = second compound 3.16 µM, first compound 3.16 µM
[30] = second compound 3.16 µM, first compound 10 µM
[31] = second compound 10 µM, first compound 0.0316 µM
[32] = second compound 10 µM, first compound 0.1 µM
[33] = second compound 10 µM, first compound 0.316 µM
[34] = second compound 10 µM, first compound 1 µM
[35] = second compound 10 µM, first compound 3.16 µM
[36] = second compound 10 µM, first compound 10 µM
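Note: spheroids exposed to compounds for seven days before readout.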
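Throughout, for viability, T/C: percent of DMSO vehicle control luminescence as 100% viability.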

Q: For `CC(C)CC(NC(=O)C(Cc1ccccc1)NC(=O)c1cnccn1)B(O)O` (stereo unspecified) + CNC(=O)c1ccc(Nc2nc(OC3CCCC3)c3c(-c4ccc5nc(C)oc5c4)c[nH]c3n2)c(OC)c1, which IC50 (second compound 0.0316 µM) is on record?
A: 1.53 nM

Q: What about the IC50 (second compound 0.1 µM) of the same molecule?
A: 1.64 nM

Q: What about the IC50 (second compound 0.316 µM) of the same molecule?
A: 1.39 nM

Q: What about the IC50 (second compound 1 µM) of the same molecule?
A: < 0.949 nM

Q: And the IC50 (second compound 3.16 µM)?
A: < 0.949 nM

Q: And the IC50 (second compound 10 µM)?
A: < 0.949 nM

Q: What about the viability, T/C (second compound 0.0316 µM, first compound 0.000949 µM) of the same molecule?
A: 84%

Q: And the viability, T/C (second compound 0.0316 µM, first compound 0.003 µM)?
A: 1.62%

Q: And the viability, T/C (second compound 0.0316 µM, first compound 0.00949 µM)?
A: 0.49%

Q: What about the viability, T/C (second compound 0.0316 µM, first compound 0.03 µM) of the same molecule?
A: 1.29%

Q: What about the viability, T/C (second compound 0.0316 µM, first compound 0.0949 µM) of the same molecule?
A: 0.77%

Q: What about the viability, T/C (second compound 0.0316 µM, first compound 0.3 µM) of the same molecule?
A: 1.96%

Q: What about the viability, T/C (second compound 0.1 µM, first compound 0.000949 µM) of the same molecule?
A: 94.3%

Q: And the viability, T/C (second compound 0.1 µM, first compound 0.003 µM)?
A: 1.2%

Q: And the viability, T/C (second compound 0.1 µM, first compound 0.00949 µM)?
A: 1.56%

Q: And the viability, T/C (second compound 0.1 µM, first compound 0.03 µM)?
A: 0.47%

Q: What about the viability, T/C (second compound 0.1 µM, first compound 0.0949 µM) of the same molecule?
A: 0.71%

Q: What about the viability, T/C (second compound 0.1 µM, first compound 0.3 µM) of the same molecule?
A: 0.48%

Q: What about the viability, T/C (second compound 0.316 µM, first compound 0.000949 µM) of the same molecule?
A: 74.2%

Q: And the viability, T/C (second compound 0.316 µM, first compound 0.003 µM)?
A: 0.82%

Q: And the viability, T/C (second compound 0.316 µM, first compound 0.00949 µM)?
A: 0.43%

Q: And the viability, T/C (second compound 0.316 µM, first compound 0.03 µM)?
A: 0.97%

Q: And the viability, T/C (second compound 0.316 µM, first compound 0.0949 µM)?
A: 0.43%

Q: What about the viability, T/C (second compound 0.316 µM, first compound 0.3 µM) of the same molecule?
A: 0.68%

Q: What about the viability, T/C (second compound 1 µM, first compound 0.000949 µM) of the same molecule?
A: 42.7%

Q: And the viability, T/C (second compound 1 µM, first compound 0.003 µM)?
A: 0.52%

Q: And the viability, T/C (second compound 1 µM, first compound 0.00949 µM)?
A: 0.29%

Q: And the viability, T/C (second compound 1 µM, first compound 0.03 µM)?
A: 0.28%

Q: And the viability, T/C (second compound 1 µM, first compound 0.0949 µM)?
A: 1.45%

Q: And the viability, T/C (second compound 1 µM, first compound 0.3 µM)?
A: 0.23%

Q: What about the viability, T/C (second compound 3.16 µM, first compound 0.000949 µM) of the same molecule?
A: 26.4%

Q: And the viability, T/C (second compound 3.16 µM, first compound 0.003 µM)?
A: 0.37%

Q: And the viability, T/C (second compound 3.16 µM, first compound 0.00949 µM)?
A: 0.79%

Q: What about the viability, T/C (second compound 3.16 µM, first compound 0.03 µM) of the same molecule?
A: 0.21%

Q: And the viability, T/C (second compound 3.16 µM, first compound 0.0949 µM)?
A: 1.01%

Q: What about the viability, T/C (second compound 3.16 µM, first compound 0.3 µM) of the same molecule?
A: 0.26%

Q: And the viability, T/C (second compound 10 µM, first compound 0.000949 µM)?
A: 17%

Q: And the viability, T/C (second compound 10 µM, first compound 0.003 µM)?
A: 0.42%

Q: And the viability, T/C (second compound 10 µM, first compound 0.00949 µM)?
A: 0.24%

Q: And the viability, T/C (second compound 10 µM, first compound 0.03 µM)?
A: 0.26%

Q: And the viability, T/C (second compound 10 µM, first compound 0.0949 µM)?
A: 1.09%

Q: And the viability, T/C (second compound 10 µM, first compound 0.3 µM)?
A: 0.3%

Q: Which IC50 (second compound 0.0316 µM) does the source give for `CC1(C)CCC(CN2CCN(c3ccc(C(=O)NS(=O)(=O)c4ccc(NCC5CCOCC5)c([N+](=O)[O-])c4)c(Oc4cnc5[nH]ccc5c4)c3)CC2)=C(c2ccc(Cl)cc2)C1` + CNC(=O)c1ccc(Nc2nc(OC3CCCC3)c3c(-c4ccc5nc(C)oc5c4)c[nH]c3n2)c(OC)c1 here?
A: 5960 nM

Q: And the IC50 (second compound 0.1 µM)?
A: 5530 nM

Q: What about the IC50 (second compound 0.316 µM) of the same molecule?
A: 5270 nM

Q: And the IC50 (second compound 1 µM)?
A: 4510 nM

Q: What about the IC50 (second compound 3.16 µM) of the same molecule?
A: 3450 nM

Q: And the IC50 (second compound 10 µM)?
A: < 31.6 nM

Q: And the viability, T/C [1]?
A: 96.7%

Q: What about the viability, T/C [2] of the same molecule?
A: 101%

Q: What about the viability, T/C [3] of the same molecule?
A: 100%

Q: And the viability, T/C [4]?
A: 121%

Q: What about the viability, T/C [5] of the same molecule?
A: 101%

Q: And the viability, T/C [6]?
A: 8.36%

Q: And the viability, T/C [7]?
A: 90.2%

Q: And the viability, T/C [8]?
A: 93.6%

Q: And the viability, T/C [9]?
A: 87.7%

Q: What about the viability, T/C [10] of the same molecule?
A: 85.9%

Q: What about the viability, T/C [11] of the same molecule?
A: 87.8%

Q: What about the viability, T/C [12] of the same molecule?
A: 9.86%

Q: What about the viability, T/C [13] of the same molecule?
A: 100%

Q: And the viability, T/C [14]?
A: 91.2%

Q: And the viability, T/C [15]?
A: 78.7%

Q: What about the viability, T/C [16] of the same molecule?
A: 88.5%

Q: And the viability, T/C [17]?
A: 84.6%

Q: And the viability, T/C [18]?
A: 6.46%

Q: And the viability, T/C [19]?
A: 70.6%

Q: And the viability, T/C [20]?
A: 67.2%

Q: What about the viability, T/C [21] of the same molecule?
A: 73.1%

Q: What about the viability, T/C [22] of the same molecule?
A: 85.3%

Q: What about the viability, T/C [23] of the same molecule?
A: 67.2%

Q: And the viability, T/C [24]?
A: 9.18%

Q: What about the viability, T/C [25] of the same molecule?
A: 50.3%

Q: And the viability, T/C [26]?
A: 63.3%

Q: And the viability, T/C [27]?
A: 55.3%

Q: What about the viability, T/C [28] of the same molecule?
A: 57.6%

Q: What about the viability, T/C [29] of the same molecule?
A: 53.3%

Q: What about the viability, T/C [30] of the same molecule?
A: 7.8%

Q: And the viability, T/C [31]?
A: 48%

Q: And the viability, T/C [32]?
A: 45%

Q: And the viability, T/C [33]?
A: 51.7%

Q: And the viability, T/C [34]?
A: 46.3%

Q: What about the viability, T/C [35] of the same molecule?
A: 44.1%

Q: And the viability, T/C [36]?
A: 9.45%

Q: Which IC50 (second compound 0.0316 µM) does the source give for `CC1COCCN1c1cc(C2(S(C)(=N)=O)CC2)nc(-c2ccnc3[nH]ccc23)n1` (stereo unspecified) + CNC(=O)c1ccc(Nc2nc(OC3CCCC3)c3c(-c4ccc5nc(C)oc5c4)c[nH]c3n2)c(OC)c1 here?
A: > 10000 nM

Q: What about the IC50 (second compound 0.1 µM) of the same molecule?
A: > 10000 nM

Q: And the IC50 (second compound 0.316 µM)?
A: 7130 nM

Q: What about the IC50 (second compound 1 µM) of the same molecule?
A: 1380 nM

Q: And the IC50 (second compound 3.16 µM)?
A: 237 nM

Q: What about the IC50 (second compound 10 µM) of the same molecule?
A: < 31.6 nM

Q: And the viability, T/C [1]?
A: 110%

Q: And the viability, T/C [2]?
A: 105%

Q: What about the viability, T/C [3] of the same molecule?
A: 110%

Q: And the viability, T/C [4]?
A: 102%

Q: What about the viability, T/C [5] of the same molecule?
A: 85.3%

Q: What about the viability, T/C [6] of the same molecule?
A: 63.3%

Q: What about the viability, T/C [7] of the same molecule?
A: 125%

Q: And the viability, T/C [8]?
A: 108%

Q: And the viability, T/C [9]?
A: 103%

Q: What about the viability, T/C [10] of the same molecule?
A: 108%

Q: What about the viability, T/C [11] of the same molecule?
A: 65%

Q: What about the viability, T/C [12] of the same molecule?
A: 62.3%

Q: What about the viability, T/C [13] of the same molecule?
A: 96.4%

Q: And the viability, T/C [14]?
A: 107%

Q: And the viability, T/C [15]?
A: 92.9%

Q: And the viability, T/C [16]?
A: 79.7%

Q: What about the viability, T/C [17] of the same molecule?
A: 64.1%

Q: And the viability, T/C [18]?
A: 44.3%

Q: And the viability, T/C [19]?
A: 76.8%

Q: What about the viability, T/C [20] of the same molecule?
A: 68.9%

Q: What about the viability, T/C [21] of the same molecule?
A: 73.4%

Q: And the viability, T/C [22]?
A: 53%

Q: And the viability, T/C [23]?
A: 39.1%

Q: What about the viability, T/C [24] of the same molecule?
A: 30.6%

Q: What about the viability, T/C [25] of the same molecule?
A: 59.7%

Q: What about the viability, T/C [26] of the same molecule?
A: 52.9%

Q: And the viability, T/C [27]?
A: 48.1%

Q: And the viability, T/C [28]?
A: 40.9%

Q: What about the viability, T/C [29] of the same molecule?
A: 33.9%

Q: What about the viability, T/C [30] of the same molecule?
A: 18.6%

Q: What about the viability, T/C [31] of the same molecule?
A: 39.8%

Q: And the viability, T/C [32]?
A: 34.6%

Q: What about the viability, T/C [33] of the same molecule?
A: 39.5%

Q: And the viability, T/C [34]?
A: 32.5%

Q: And the viability, T/C [35]?
A: 24.2%

Q: What about the viability, T/C [36] of the same molecule?
A: 14.5%

From PubChem BioAssay AID2060623 (Molecular Pharmacology Branch, DTP, NCI, 2025)
